In BindingDB's records for doi:10.1038/42506 (The University of Tokyo, 1997) one finds Ki data, which are given here for five compounds.

For the test, the target named is T1, Leukotriene B4 receptor 2 (Homo sapiens, UniProt Q9NPC1).
T1 sequence (Q9NPC1 whole entry): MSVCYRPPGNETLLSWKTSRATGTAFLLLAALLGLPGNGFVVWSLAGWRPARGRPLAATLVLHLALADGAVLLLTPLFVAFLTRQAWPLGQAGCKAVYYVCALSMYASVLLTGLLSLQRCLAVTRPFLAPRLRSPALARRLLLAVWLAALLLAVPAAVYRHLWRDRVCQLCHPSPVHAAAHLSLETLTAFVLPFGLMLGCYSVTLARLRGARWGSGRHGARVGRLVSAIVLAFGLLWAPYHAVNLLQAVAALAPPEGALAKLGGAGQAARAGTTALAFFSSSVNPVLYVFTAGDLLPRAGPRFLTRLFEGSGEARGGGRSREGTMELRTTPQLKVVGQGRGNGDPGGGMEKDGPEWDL
As to `COc1ccc(/C=C/CCCCOc2cccc(OCCCCC(=O)O)c2CCC(=O)O)cc1` [ONO 4057], the Ki turned out to be 1200 nM.

Consider `O=C(O)CCCC(O)C=CC=CC=CC(O)CC=CCCCCCO` (stereo not given) [NSC_1589], for which the Ki turned out to be 7.6 nM.

For `O=C(O)CCCCCC=CCC(O)C=CC=CC=CC(O)CCCC(=O)O` (stereo not given) [NSC_128572], the Ki was 190 nM.

For the compound `CCCCCCC=CC(=O)C=CC=CC=CC(O)CCCC(=O)O` (stereo not given) [CAS_5280876], affinity was put at a Ki of 7.6 nM.

Consider `CCCCC/C=C\C[C@H](O)/C=C/c1cccc(C[C@H](O)CCCCO)n1` [(5R)-6-[6-[(1E,3S,5Z)-3-hydroxyundeca-1,5-dienyl]pyridin-2-yl]hexane-1,5-diol], for which the Ki is 120 nM.
